{"source": "patent US20230218573A1", "about": "“INDOLE COMPOUNDS FOR THE TREATMENT OF NEURODEGENERATIVE DISEASES” (GALYAN BIO, INC., priority 2020, published 2023)", "key": {"[1]": {"tested_on": "R6/2 mice of Huntington's disease", "assay": "Rotarod latency in R6/2 mice", "assay_type": "in vivo", "settings": "for rotarod performance versus vehicle treated R6/2 mice: 33 mg/kg i.p. QD", "method": "(§1) Methods - Total of 20 female and male R6/2 mice and 10 female and male wild-type littermate control mice (WT) were used in the study. The mice were genotyped and the R6/2 mice were divided into different treatment groups based on their litter and baseline body weight. The treatment with Vehicle or Compound 22(33 mg/kg; 5 ml/kg, i.p. QD) was started at 4 weeks of age after the baseline behavioral tests (FIG. 10). Body weights were measured at 3 weeks of age and twice a week until the end of the study.\nThe experimental groups were: • Group 1) 10 wild-type mice (mixed gender) treated with Vehicle (5 ml/kg, i.p., QD) starting at 4 weeks of age • Group 2) 10 R6/2 mice (mixed gender) treated with Vehicle (5 ml/kg, i.p., QD) starting at 4 weeks of age • Group 3) 10 R6/2 mice (mixed gender) treated with Compound 22 (33 mg/kg; 5 ml/kg, i.p. QD) starting at 4 weeks of age\n44.3.7 - Compound Delivery and Dosing - Treatment with Compound 22 (33 mg/kg; 5 ml/kg, i.p. QD) or Vehicle was started at age week 4 and continued until the 12 weeks of age. The test articles were handled and stored and the dose formulations were prepared according to detailed instructions provided by the Sponsor.\n44.3.9.1 - Rotarod - The Rotarod test was perfomed at 4 (pre-treatment baseline), 6, 8 and 10 weeks of age. Each testing day included a training trial of 5 min at 4 RPM on the Rotarod apparatus (AccuScan Instruments, Columbus, USA). 30 minutes later, the animals were tested for 3 consecutive accelerating trials of 6 min with the speed changing from 0 to 40 RPM over 360 seconds and with an inter-trial interval of at least 30 min. The latency to fall from the rod was recorded. Mice remaining on the rod for more than 360 s were removed and their time scored as 360 sec.\n10 female R6/2 mice and 10 female wild-type littermate control mice (F1 generation) were bred by Charles River Laboratories, Sulzfeld, Germany by mating (F0 generation) WT males (C57BL/6J; systematically re-infused with pedigreed JAX mice, stock 000664) with ovarian transferred (OT) TG females (JAX, stock 006494). […]"}, "KCNA1": {"tested_on": "KCNA1", "assay": "Nanostring gene expression in STHdh 111/111 cells: Kcna", "assay_type": "cell-based, mouse", "settings": "treated STHdh 111/111 (Q111-10), 48 h; in comparison to untreated STHdh 111/111", "method": "Gene expression of certain transcripts of interest were measured using Nanostring Technology. […] Some STHdh 7/7 and STHdh 111/111 cell samples were not heat shocked and some wells were treated with Compound 22 at the indicated concentration on for 48 hours (Table 12). Some STHdh 7/7 and STHdh 111/111 cell samples were heat shocked for 3 hours some wells were treated with Compound 22 at the indicated concentration on for 48 hours (Table 13). Cells are washed with PBS, trypsinised, and gathered in a 15 ml falcon tube. After a short spin down for 3 minutes at 300 g, the cell pellet was washed with PBS once, before it was frozen down in liquid nitrogen. RNA was extracted with a standard protocol. The nCounter® Mouse Neuropathology Panel (Nanostring, Seattle) was used for gene expression analysis according to the manufacturer’s protocols."}, "[2]": {"tested_on": "Htt14A2.6 PC12 cells (mHttex1-GFP)", "assay": "mHTT aggregation by filter retardation assay in Htt14A2.6 PC12 cells", "assay_type": "cell-based", "settings": "24 hour treatment, different concentrations", "method": "Compounds from the Biacore screening were selected for measurement of aggregation in a cell model Htt14A2.6 PC12. Htt14A2.6 PC12 cells express a GFP- tagged 97Q mHtt exon 1 fusion protein (mHttex1-GFP) in the presence of ponasterone A. Htt14A2.6 PC12 cells were grown in medium containing 5 µM ponasterone A for 20 hours prior to treatment with the compounds. Htt14A2.6 PC12 cells were plated at 50~60% confluency. Compound 22 was tested at a final concentration of 80 nM, 400 nM and 10 µM in cell culture medium for 24 hours. Htt14A2.6 PC12 cells were harvested, rinsed, homogenized in cold phosphate-buffered saline containing protease inhibitor cocktail, and centrifuged at 16000 g for 30 min at 4° C. twice. About 25 µg total protein of each sample was resolved in 8% SDS PAGE, transferred onto PVDF membrane, blotted with an anti-GFP antibody, and visualized by ECL detection. mHTT aggregates were quantified from the cell lysates by filter retardation assay (Wanker, E.E., et al., Methods Enzymol (1999); 309: 375-386)."}, "[3]": {"tested_on": "R6/2 mice of Huntington's disease", "assay": "Grip strength in R6/2 mice", "assay_type": "in vivo", "settings": "33 mg/kg i.p. QD; 4-12 weeks of age", "method": "as §1\nThe experimental groups were: • Group 1) 10 wild-type mice (mixed gender) treated with Vehicle (5 ml/kg, i.p., QD) starting at 4 weeks of age • Group 2) 10 R6/2 mice (mixed gender) treated with Vehicle (5 ml/kg, i.p., QD) starting at 4 weeks of age • Group 3) 10 R6/2 mice (mixed gender) treated with Compound 22 (33 mg/kg; 5 ml/kg, i.p. QD) starting at 4 weeks of age […]\nMice were taken to the experimental room and, one at a time, were placed on the grip strength apparatus (San Diego Instruments, San Diego, USA) in such a way that the animal grabbed a small mesh grip with its forepaws. […] Five scores were recorded per animal in consecutive sequence, and the average of three best scores for each animal was used for the results. […]"}, "[4]": {"assay": "Microsomal stability in mice", "assay_type": "in vitro ADME"}}, "note": "Entries after “also recorded” stand apart in the source; their conditions may differ."}
{"smiles": "Cc1[nH]c2ccc(C(=O)NCCN(C(C)C)C(C)C)cc2c1C", "note": "[Compound 22]", "values": [{"measurement": "improvement of latency to fall in comparison to untreated model mice", "setting": "[1]; R6/2 mice, 10 weeks of age", "result": 94, "unit": "%"}, {"measurement": "rotarod performance versus vehicle treated R6/2 mice", "setting": "[1]; female R6/2 mice, 10 weeks of age, 33 mg/kg", "result": "significantly improved rotarod performance; also recorded: almost doubled the latency to fall"}, {"measurement": "rotarod performance versus vehicle treated R6/2 mice", "setting": "[1]; pooled genders or males", "result": "no significant differences"}, {"measurement": "Kcna1 expression increased by", "setting": "KCNA1", "result": 68, "unit": "%"}, {"measurement": "reduction of mHTT aggregation (filter retardation)", "setting": "[2]", "result": "A reduction of aggregation of Htt14A2.6 PC12 was observed; also recorded: A reduction of mHTT in Htt14A2.6 PC12 cells was observed"}, {"measurement": "grip strength versus vehicle treated R6/2 mice", "setting": "[3]", "result": "no significant differences"}, {"measurement": "microsomal stability", "setting": "[4]", "result": "short"}]}
